“And” between values parts separate entries of the source, which are not always exact repeats. Equal entries are not always repeated. Inconclusive results and toxic doses are left out.

The assay concerns P388 leukemia ip, CD2F1 mice, survival T/C. In words: NCI In Vivo Anticancer Drug Screen. Data for tumor model P388 Leukemia (intraperitoneal) in CD2F1 (CDF1) mice. The following applies: endpoint: median survival time, higher = longer survival. A digest of the protocol: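 Mice carrying the transplanted tumor received test compound or vehicle. Survival was recorded in each group, and the value is the treated-group measurement divided by that of the vehicle-treated control group.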

Where [1] appears, read: dose: 50.0 mg/kg/injection, schedule: Q01DX009 (ip), vehicle: saline.
Setting [2] is: dose: 100.0 mg/kg/injection, schedule: Q01DX009 (ip), vehicle: saline.
[3] abbreviates: dose: 200.0 mg/kg/injection, schedule: Q01DX009 (ip), vehicle: saline.
Setting [4] is: dose: 12.5 mg/kg/injection, schedule: Q01DX009 (ip), vehicle: other.
The mark [5] stands for this setting: dose: 25.0 mg/kg/injection, schedule: Q01DX009 (ip), vehicle: other.
The mark [6] stands for this setting: dose: 50.0 mg/kg/injection, schedule: Q01DX005 (ip), vehicle: Klucel (hydroxypropylcellulose) (HPC).
Setting [7] is: dose: 100.0 mg/kg/injection, schedule: Q01DX005 (ip), vehicle: Klucel (hydroxypropylcellulose) (HPC).
Setting [8] is: dose: 200.0 mg/kg/injection, schedule: Q01DX005 (ip), vehicle: Klucel (hydroxypropylcellulose) (HPC).
Where [9] appears, read: dose: 50.0 mg/kg/injection, schedule: Q01DX005 (ip), vehicle: saline with Tween-80.
[10] abbreviates: dose: 100.0 mg/kg/injection, schedule: Q01DX005 (ip), vehicle: saline with Tween-80.
Where [11] appears, read: dose: 200.0 mg/kg/injection, schedule: Q01DX005 (ip), vehicle: saline with Tween-80.
Where [12] appears, read: dose: 15.0 mg/kg/injection, schedule: Q01DX005 (ip), vehicle: saline with Tween-80.
[13] abbreviates: dose: 30.0 mg/kg/injection, schedule: Q01DX005 (ip), vehicle: saline with Tween-80.
Setting [14] is: dose: 60.0 mg/kg/injection, schedule: Q01DX005 (ip), vehicle: saline with Tween-80.
The mark [15] stands for this setting: dose: 120.0 mg/kg/injection, schedule: Q01DX005 (ip), vehicle: saline with Tween-80.
The mark [16] stands for this setting: dose: 240.0 mg/kg/injection, schedule: Q01DX005 (ip), vehicle: saline with Tween-80.

As for `CCOC(=O)C1=C(Nc2ccc(OC)cc2)C(N)=NC1=N`, the T/C is 100 % of control (dose: 6.25 mg/kg/injection, schedule: Q01DX009 (ip), vehicle: suspension in saline); 102 % of control and 110 % of control (dose: 12.5 mg/kg/injection, schedule: Q01DX009 (ip), vehicle: suspension in saline); 106 % of control and 117 % of control (dose: 25.0 mg/kg/injection, schedule: Q01DX009 (ip), vehicle: suspension in saline); 102 % of control and 121 % of control (dose: 50.0 mg/kg/injection, schedule: Q01DX009 (ip), vehicle: suspension in saline); 92 % of control (dose: 100.0 mg/kg/injection, schedule: Q01DX009 (ip), vehicle: suspension in saline).
For the compound `CC(=O)Nc1ccc2c(c1)Cc1cccc(NC(C)=O)c1-2`, the T/C is, setting by setting: under setting [1], 105 % of control; under setting [2], 110 % of control; under setting [3], 115 % of control.
For `CC(C)=CCC/C(C)=C\CN(C)C`, the T/C (dose: 6.25 mg/kg/injection, schedule: Q04DX002 (ip), vehicle: saline with Tween-80) was 100 % of control; the T/C (dose: 12.5 mg/kg/injection, schedule: Q04DX002 (ip), vehicle: saline with Tween-80) is 103 % of control; the T/C (dose: 25.0 mg/kg/injection, schedule: Q04DX002 (ip), vehicle: saline with Tween-80) is 94 % of control.
As for `O=C(NP1(=O)NCc2ccccc2CN1)OC1CCCCC1`, the T/C (dose: 6.25 mg/kg/injection, schedule: Q01DX005 (ip), vehicle: Klucel (hydroxypropylcellulose) (HPC)) was 94 % of control; the T/C (dose: 12.5 mg/kg/injection, schedule: Q01DX005 (ip), vehicle: Klucel (hydroxypropylcellulose) (HPC)) was 99 % of control; the T/C (dose: 25.0 mg/kg/injection, schedule: Q01DX005 (ip), vehicle: Klucel (hydroxypropylcellulose) (HPC)) is 97 % of control.
Turning to `O=C(c1ccccc1)N1CC2CCC1CN2C(=O)c1ccccc1`, the T/C reads like this: under setting [4], 105 % of control; under setting [5], 105 % of control; (dose: 50.0 mg/kg/injection, schedule: Q01DX009 (ip), vehicle: other) 100 % of control; (dose: 100.0 mg/kg/injection, schedule: Q01DX009 (ip), vehicle: other) 100 % of control; (dose: 200.0 mg/kg/injection, schedule: Q01DX009 (ip), vehicle: other) 105 % of control.
For the compound `Cc1ccccc1N1CCN(C(=O)c2nc3ccccc3[nH]2)CC1`, the T/C reads like this: under setting [6], 91 % of control; under setting [7], 87 % of control; under setting [8], 101 % of control.
As for `CCCCCCCC/C=C\CCCCCCCC(=O)OCC(=O)OC`, the T/C is 98 % of control (dose: 50.0 mg/kg/injection, schedule: Q01DX009 (ip), vehicle: Klucel (hydroxypropylcellulose) (HPC)); 104 % of control (dose: 100.0 mg/kg/injection, schedule: Q01DX009 (ip), vehicle: Klucel (hydroxypropylcellulose) (HPC)); 110 % of control (dose: 200.0 mg/kg/injection, schedule: Q01DX009 (ip), vehicle: Klucel (hydroxypropylcellulose) (HPC)).
On to `O=C(O)CCSCCCCCCCCCCCCSCCC(=O)O`, for which the T/C under setting [6] is 95 % of control, the T/C under setting [7] is 89 % of control and the T/C under setting [8] is 87 % of control.
Regarding `CCCCOC(=O)C1CSSCC(NC(C)=O)C(=O)N1` (centres undefined), the T/C runs as follows: (dose: 17.5 mg/kg/injection, schedule: Q01DX005 (ip), vehicle: Klucel (hydroxypropylcellulose) (HPC)) 101 % of control; (dose: 35.0 mg/kg/injection, schedule: Q01DX005 (ip), vehicle: Klucel (hydroxypropylcellulose) (HPC)) 102 % of control; (dose: 70.0 mg/kg/injection, schedule: Q01DX005 (ip), vehicle: Klucel (hydroxypropylcellulose) (HPC)) 108 % of control.
For `CCC1(C=O)NC(=O)NC1=O` (centres undefined), the T/C reads like this: under setting [9], 91 % of control; under setting [10], 95 % of control; under setting [11], 87 % of control.
For `C1=CN2CC(c3ccccc3)N=C2S1` (centres undefined), the T/C by setting is: under setting [4], 99 % of control; under setting [5], 102 % of control.
As for `O=C(CCS(=O)(=O)CCC(=O)C(c1ccccc1)c1ccccc1)C(c1ccccc1)c1ccccc1`, the T/C by setting is: (dose: 100.0 mg/kg/injection, schedule: Q04DX003 (ip), vehicle: saline) 97 % of control; (dose: 200.0 mg/kg/injection, schedule: Q04DX003 (ip), vehicle: saline) 94 % of control; (dose: 400.0 mg/kg/injection, schedule: Q04DX003 (ip), vehicle: saline) 90 % of control.
Turning to `CCOC(=O)C12CC(COc3ccc([N+](=O)[O-])cc3)ON1OC(COc1ccc([N+](=O)[O-])cc1)C2` (centres undefined), the T/C under setting [12] is 93 % of control; the T/C under setting [13] is 90 % of control; the T/C under setting [14] is 86 % of control and 88 % of control.
Regarding `COc1ccc(CSc2nn(CCC#N)c(=O)[nH]c2=O)cc1`, the T/C under setting [9] is 95 % of control, the T/C under setting [10] was 97 % of control and the T/C under setting [11] is 94 % of control.
For `CCN(CC)CCSS(=O)(=O)CCN(CC)CC`, the T/C is 100 % of control (dose: 50.0 mg/kg/injection, schedule: Q01DX005 (ip), vehicle: saline) and 109 % of control (dose: 100.0 mg/kg/injection, schedule: Q01DX005 (ip), vehicle: saline).
As to `O=C(O)c1cc(Br)cc(Br)c1O.O=C(O)c1cc(Br)cc(Br)c1O.[Cu]`, the T/C under setting [12] is 92 % of control; the T/C under setting [13] is 94 % of control; the T/C under setting [14] was 101 % of control and 92 % of control.
For `CCOCC(=O)N[C@H]1CCc2cc(OC)c(OC)c(OC)c2-c2ccc(SC)c(=O)cc21`, the T/C is, setting by setting: (dose: 0.75 mg/kg/injection, schedule: Q01DX009 (ip), vehicle: Klucel (hydroxypropylcellulose) (HPC)) 158 % of control and 161 % of control; (dose: 1.5 mg/kg/injection, schedule: Q01DX009 (ip), vehicle: Klucel (hydroxypropylcellulose) (HPC)) 193 % of control and 229 % of control.
Take `CC1=NNC(=O)C1N=Nc1c(C)n(C)n(-c2ccccc2)c1=O` (centres undefined): the T/C is 100 % of control under setting [9], 99 % of control under setting [10] and 100 % of control under setting [11].
For `C=C(C)C(Br)=C(C)C`, the T/C by setting is: (dose: 12.5 mg/kg/injection, schedule: Q01DX001 (ip), vehicle: saline with Tween-80) 108 % of control; (dose: 25.0 mg/kg/injection, schedule: Q01DX001 (ip), vehicle: saline with Tween-80) 107 % of control; (dose: 50.0 mg/kg/injection, schedule: Q01DX001 (ip), vehicle: saline with Tween-80) 99 % of control.
Turning to `O=[N+]([O-])c1ccccc1N=Nc1c(-c2ccccc2)nn(C(=S)S)c1-c1ccccc1`, the T/C (dose: 25.0 mg/kg/injection, schedule: Q04DX002 (ip), vehicle: Klucel (hydroxypropylcellulose) (HPC)) is 99 % of control; the T/C (dose: 50.0 mg/kg/injection, schedule: Q04DX002 (ip), vehicle: Klucel (hydroxypropylcellulose) (HPC)) was 101 % of control; the T/C (dose: 100.0 mg/kg/injection, schedule: Q04DX002 (ip), vehicle: Klucel (hydroxypropylcellulose) (HPC)) is 105 % of control; the T/C (dose: 200.0 mg/kg/injection, schedule: Q04DX002 (ip), vehicle: Klucel (hydroxypropylcellulose) (HPC)) is 112 % of control.
For `CCOC(=O)C1=NN2C(O)C3(C)CC(C(=O)OCC)=NN3C(O)C2(C)C1` (centres undefined), the T/C under setting [1] was 105 % of control, the T/C under setting [2] is 107 % of control and the T/C under setting [3] is 99 % of control.
With `COc1nc(NC2OCC(OC(C)=O)C(OC(C)=O)C2OC(C)=O)c(N=CC=Nc2c(NC3OCC(OC(C)=O)C(OC(C)=O)C3OC(C)=O)nc(OC)n(C)c2=O)c(=O)n1C` (centres undefined), the T/C is 92 % of control under setting [14], 91 % of control under setting [15] and 91 % of control under setting [16].
For the compound `CC(C)CC(=O)CC(=O)CCC(=O)Nc1ccc(Cl)cc1Cl`, the T/C was 100 % of control under setting [14], 108 % of control under setting [15] and 100 % of control under setting [16].
Consider `CC1=CCCCC1=O`, for which the T/C was 107 % of control under setting [14], 106 % of control under setting [15] and 102 % of control under setting [16].
With `C/C(CC1C(CCO)C1(C)C)=N\NC(N)=O` (centres undefined), the T/C by setting is: (dose: 60.0 mg/kg/injection, schedule: Q01DX005 (ip), vehicle: Klucel (hydroxypropylcellulose) (HPC)) 98 % of control; (dose: 120.0 mg/kg/injection, schedule: Q01DX005 (ip), vehicle: Klucel (hydroxypropylcellulose) (HPC)) 100 % of control; (dose: 240.0 mg/kg/injection, schedule: Q01DX005 (ip), vehicle: Klucel (hydroxypropylcellulose) (HPC)) 106 % of control.
Turning to `O=S1(=O)c2ccccc2N(c2ccccc2)c2nnc(COc3ccccc3)n21`, the T/C runs as follows: under setting [9], 90 % of control; under setting [10], 88 % of control.

The values above are taken from PubChem BioAssay AID330 (DTP/NCI, 2004).
